# Measurements taken from PubChem BioAssay (NCI).
#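 Results reflect a 48-hour exposure of cells in 96-well plates to compound at five concentrations. GI50 = concentration required for 50% inhibition of growth. TGI denotes the concentration required for complete inhibition of growth.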 Where a SMILES comes first, the peptide text is derived from it. Bridges are numbered along the chain shown (N, C = ends). Roman numbers before positions name the chains, in order. [ ]: non-standard residue; d: D form. The star is where a group is joined. Heptadecanoyl = CCCCCCCCCCCCCCCCC(=O)*; Phg = N[CH](C(=O)O)c1ccccc1
# Key:
# Assay in all cases: NCI anticancer screen, dose series, 48 h
# CAKI-1 renal = tested on: CAKI-1 renal
# HS 578T breast = tested on: HS 578T breast
# KM12 colon = tested on: KM12 colon
# HOP-92 NSCLC = tested on: HOP-92 NSCLC
# HOP-62 NSCLC = tested on: HOP-62 NSCLC
# M14 melanoma = tested on: M14 melanoma
# SK-MEL-2 melanoma = tested on: SK-MEL-2 melanoma
# SNB-75 CNS = tested on: SNB-75 CNS
# RPMI-8226 leukemia = tested on: RPMI-8226 leukemia
# HL-60(TB) leukemia = tested on: HL-60(TB) leukemia
Structure (SMILES),TGI (CAKI-1 renal) [µM],TGI (HS 578T breast) [µM],TGI (KM12 colon) [µM],TGI (HOP-92 NSCLC) [µM],TGI (HOP-62 NSCLC) [µM],TGI (M14 melanoma) [µM],TGI (SK-MEL-2 melanoma) [µM],TGI (SNB-75 CNS) [µM],TGI (RPMI-8226 leukemia) [µM],TGI (HL-60(TB) leukemia) [µM],GI50 (CAKI-1 renal) [µM],GI50 (HS 578T breast) [µM],GI50 (HOP-92 NSCLC) [µM],GI50 (HOP-62 NSCLC) [µM],GI50 (M14 melanoma) [µM],GI50 (SK-MEL-2 melanoma) [µM],GI50 (SNB-75 CNS) [µM],GI50 (RPMI-8226 leukemia) [µM],GI50 (HL-60(TB) leukemia) [µM]
O=C1/C(=C/c2ccc(O)cc2)CCc2ccccc21,91.5,94.3,32.2,91.1,55.4,36.6,36,> 70.7,34.9,36.7,,,,,,,,,
c1ccc(-c2cc(-c3cc(-c4ccccc4)no3)on2)cc1,> 100,> 100,> 100,> 100,> 100,> 100,> 100,,> 100,> 100,,,,,,,,,
Cc1nn(C(=O)c2ccncc2)c2c1C(c1ccccc1O)SC(N)=N2 (stereo not given),> 10,> 10,> 10,> 10,> 10,> 10,> 10,> 10,> 10,> 10,,,,,,,,,
Cc1c(C)c(C)c(CSC(=N)N)c(C)c1C,25.8,36.4,39.3,30.9,29.1,22.7,27.8,29,38.9,27.6,,,,,,,,,
N=C(N)c1ccc(-c2ccc(-c3ccc(C(=N)N)cc3)o2)cc1,> 100,56.9,> 100,> 100,> 100,> 100,59.2,> 100,> 100,> 100,,,,,,,,,
Clc1ccc(CSCc2ccc(Cl)cc2Cl)c(Cl)c1,> 100,> 100,> 100,> 100,> 100,> 100,51.3,89,88.6,> 100,,,,,,,,,
CCNC(=O)Cc1nc2c(=O)[nH]cnc2n1C1OC(CO)C(O)C1O (stereo not given),> 100,> 100,> 100,> 100,> 100,> 100,> 100,> 100,> 100,> 100,,,,,,,,,
CC(C)[C@H](NC(=O)[C@@H](O)[C@H](N)Cc1ccccc1)C(=O)N[C@@H](Cc1ccccc1)C(=O)O,> 100,> 100,> 100,> 100,> 100,> 100,> 100,> 100,> 100,> 100,,,,,,,,,
Cc1ccc(S(=O)(=O)N/N=C2/CC[C@H](C(C)(C)C)C[C@@H]2C)cc1,26.3,45.1,49.7,33.4,26.9,26.6,32.4,39,> 100,> 100,,,,,,,,,
CC[C@@H]1C[C@@H](O)[C@@H]2[C@H](O)[C@H](O)CN2C1,> 100,> 100,> 100,> 100,,> 100,> 100,> 100,> 100,> 100,,,,,,,,,
CCCCCCCCCCCCCCCCC(=O)N1CCCC1C(=O)NCC(=O)NC(C(=O)N1CCCC1C(=O)NC(CO)C(=O)NC(Cc1ccc(O)cc1)C(=O)NC(CCCCNC(=O)C1CCCN1C(=O)C(CCCCN)NC(=O)C(CCCCN)NC(=O)C(CCCCN)NC(=O)C(CCCNC(=N)N)NC(=O)C(CCCCN)NC(=O)C(N)C(C)C)C(=O)NC(CC(C)C)C(=O)NC(CCCNC(=N)N)C(=O)N1CCCC1C(=O)NCC(N)=O)c1ccccc1 (stereo not given) (I: Heptadecanoyl-PG[Phg]PSYKLRPG-NH2 / II: H-VKRKKKP; amide I:7-II:C; configuration not given here),47.7,> 100,,83,> 100,99.7,> 100,> 100,35.3,> 100,22.9,> 100,30.4,32.3,25.3,50.3,54.2,13.5,21.3
C/C(=C\c1ccc2c(c1)OCO2)[N+](=O)[O-],4.41,45.8,,5.53,> 100,42.5,5.49,88.2,> 100,5.73,,,,,,,,,
CC(C)(C)OC(=O)N1C(=O)OC[C@@H]2C=C[C@@H]21,> 100,> 100,> 100,> 100,> 100,> 100,> 100,,> 100,> 100,,,,,,,,,
O=C(CN1C(=O)c2ccccc2C1=O)OCC1CCCN2CCCCC12 (stereo not given),> 100,> 100,> 100,> 100,,,> 100,> 100,> 100,> 100,,,,,,,,,
CCOC(=O)c1nc2ccc(C(F)(F)F)cc2nc1Nc1ccc(OC)c(OC)c1,86.5,> 100,> 100,> 100,29,> 100,,67.4,> 100,> 100,,,,,,,,,
COc1cc(OC)nc(NC(=O)NS(=O)(=O)c2cccc3ncn(C)c(=O)c23)n1,> 100,> 100,,> 100,> 100,> 100,> 100,> 100,> 100,> 100,,,,,,,,,
